Results: the OPERA property sets (Mansouri et al. 2018)

Settings: for log10 biotransformation half-life (days) / log10 BCF: fish

SMILES	melting point [°C]	boiling point [°C]	further results
O=C(O)c1cc(Cl)c(C(=O)O)cc1Cl	306		
Clc1ccc(-c2cc(Cl)c(Cl)c(Cl)c2)cc1			log10 biotransformation half-life (days): 1.69
COc1ccc2c(c1)C(=O)N(CCc1ccc(S(=O)(=O)NC(=O)NC3CCCCC3)cc1)C(=O)C2(C)C	181		
O=C1C=CCO1	4.5		
CCC(C)C1(CC)C(=O)NC(=S)NC1=O (stereo not given)	169		
C=CC#CC=C	-88	85	
NC[C@H](O)[C@@H](O)[C@@H](O)[C@H](O)CO	127		
CC(C)=CCC/C(C)=C/C=C/C(C)=C/C=C/C(C)=C/C=C/C=C(C)/C=C/C=C(C)/C=C/C1=C(C)CCCC1(C)C	178		
CC(=O)OCCC(C)C	-78.5	142	log10 Henry constant (atm·m³/mol): -3.23; log10 Koa: 3.94; log10 vapour pressure (mmHg): 0.748
CC(=O)OC[C@H]1O[C@@](COC(C)=O)(O[C@H]2O[C@H](COC(C)=O)[C@@H](OC(C)=O)[C@H](OC(C)=O)[C@H]2OC(C)=O)[C@@H](OC(C)=O)[C@@H]1OC(C)=O	86.5		
FC(F)(F)C(F)(F)C(F)(F)C(F)(F)C(F)(F)C(F)(F)F	-87.1	56.6	log10 vapour pressure (mmHg): 2.34
COc1cc(O)ccc1O	90		
CNCCO	-4.5	158	log10 vapour pressure (mmHg): 0.0346; ready biodegradability: readily biodegradable
CCCCCCCCCCCCCCCCCC(=O)Oc1ccccc1	52		
Cc1cc(N)ccc1O	176		
CC(Cl)Br (stereo not given)		83	log10 vapour pressure (mmHg): 1.93
CC(=O)OCC(=O)[C@@]1(O)[C@@H](C)C[C@H]2[C@@H]3CCC4=CC(=O)C=C[C@]4(C)[C@@]3(F)[C@@H](O)C[C@@]21C	248		
O=C1CSC(=O)N1	128		
Nc1ccc2c(c1N)C(=O)c1ccccc1C2=O	290		
NNC(=O)c1ccc(O)cc1	265		
CC(=O)c1ccc(O)c(O)c1	116		
N#CC(c1ccccc1)c1ccccc1	74.3		ready biodegradability: not readily biodegradable
Cc1c([N+](=O)[O-])c(C)c([N+](=O)[O-])c(C(C)(C)C)c1[N+](=O)[O-]	110		ready biodegradability: not readily biodegradable; log10 BCF: 3.61
CCCCOC(=O)CC(=O)OCCCC	-83	252	

SMILES	melting point [°C]	boiling point [°C]	further results
CC(=O)N1CCCC(C)C1 (stereo not given)	-13.6	239	
Clc1cc(Cl)c2cc(Cl)cc(Cl)c2c1	180		log10 Koa: 7.9
Cc1cc(=O)c2ccccc2[nH]1	234		
O=Cc1cccc(C(=O)O)c1	174		
Cc1cccc(CO)c1		216	
COC1=CC(=O)C=C(OC)C1=O	256		
C=C1C(=O)OC2[C@H]1CC[C@H](C)[C@@H]1C=CC(=O)[C@@]21C (stereo not given in full)	146		
ClCc1ccc(Cl)c(Cl)c1	37.5	241	ready biodegradability: not readily biodegradable
OCc1ccccc1O	87		ready biodegradability: not readily biodegradable
CCCCc1ccccc1O	-20	235	log10 vapour pressure (mmHg): -1.99
O=C(N[C@H](CO)[C@H](O)c1ccc([N+](=O)[O-])cc1)C(Cl)Cl	150		
CC(C)COS(=O)OCC(C)C		210	
NC(=O)c1ccc([N+](=O)[O-])cc1	200		log10 Koc (L/kg): 1.93
CCCCCCCCCCCCOC(=O)CCSCCC(=O)OCCCCCCCCCCCC	41		ready biodegradability: readily biodegradable
O=C1CCCCCC1=O	-40		
CC(C)OC(=O)[C@@H](C)N(C(=O)c1ccccc1)c1ccc(F)c(Cl)c1			log10 vapour pressure (mmHg): -6.2
Cc1cc(C(=O)NCCc2ccc(S(=O)(=O)NC(=O)NN3CCCCCC3)cc2)no1	189		
CCCC(CC)CC(C)C (stereo not given)		158	
Cc1nc(C)c(C)nc1C	85	190	
C=C(C)CC(C)O (stereo not given)		129	
Cc1cc(C(C)(C)C)ccc1O	27.5	237	log10 vapour pressure (mmHg): -1.55
COc1cccc([N+](=O)[O-])c1	38.5	258	ready biodegradability: not readily biodegradable; log10 BCF: 0.78; log10 biotransformation half-life (days): -1.04
Cc1ccc(S(=O)(=O)Oc2c(C(=O)c3ccc(Cl)cc3Cl)c(C)nn2C)cc1	118		
O=[N+]([O-])c1ccc(Cl)cc1	83.5	242	log10 Henry constant (atm·m³/mol): -5.31; log10 vapour pressure (mmHg): -1.66; ready biodegradability: not readily biodegradable; log10 BCF: 1.3; log10 biotransformation half-life (days): -0.48

SMILES	melting point [°C]	boiling point [°C]	further results
CCCC(C)C(C)=O (stereo not given)		144	
Nc1cccc(C(F)(F)F)c1	5.5	187	log10 Koc (L/kg): 2.36
O=c1c(O)c(O)c(=O)c1=O	150		
CC1=CC(=O)C(C(C)C)CC1 (stereo not given)		233	
C=CCCCCCCC	-81.3	147	log10 Koa: 3.83; log10 vapour pressure (mmHg): 0.732; ready biodegradability: not readily biodegradable; log10 BCF: 3.17; log10 biotransformation half-life (days): 0.52
CCCCCC(=O)Nc1ccccc1	95		
CN(C)C(=O)Nc1cccc(C(F)(F)F)c1	164		log10 Koc (L/kg): 1.9; log10 vapour pressure (mmHg): -6.03
c1ccc(OCC2CO2)cc1 (stereo not given)	3.5	245	log10 vapour pressure (mmHg): -2; ready biodegradability: not readily biodegradable
Oc1c(Br)cc(Br)cc1Br	95.5	286	ready biodegradability: readily biodegradable; log10 BCF: 2.71
CS(=O)(=O)c1ccc(-c2cn3ccccc3n2)cc1	243		
CCCOC=O	-92.9	80.9	log10 Koa: 2.66; log10 vapour pressure (mmHg): 1.92
CCCCC1CCC(OC(=O)C2CCC(CCCC)CC2)CC1 (stereo not given)			ready biodegradability: readily biodegradable
Cc1ccc(Cl)cc1	7.5	162	log10 vapour pressure (mmHg): 0.43; ready biodegradability: not readily biodegradable; log10 BCF: 1.76; log10 biotransformation half-life (days): -0.83
Nc1ccncc1	158	273	ready biodegradability: not readily biodegradable; log10 BCF: 0.66
CCCCCCOCCOCCO	-40	260	log10 vapour pressure (mmHg): -2.93
O=[N+]([O-])c1ccccc1-c1ccccc1	37.2	320	
CCOC(=O)CC(C)O (stereo not given)		185	
CNCCc1ccccc1		206	
c1cc2c3c(cccc3c1)CC2	93.4	279	log10 Henry constant (atm·m³/mol): -3.74; log10 Koa: 6.31; log10 Koc (L/kg): 3.59; log10 biodegradation half-life (days): 1.59; log10 vapour pressure (mmHg): -2.67; ready biodegradability: not readily biodegradable; log10 BCF: 2.88
Cc1cc(NS(=O)(=O)c2ccc(N)cc2)nc(C)n1	243		
OCc1c[nH]c2ccccc12	97.5		
C(COCCOCC1CO1)OCCOCC1CO1 (stereo not given)	-13		
CC(C)OC(=O)CCCCC(=O)OC(C)C	-1.1		
CCC(C)(C)c1cc(C)cc(C(C)(C)CC)c1O		283	

SMILES	melting point [°C]	boiling point [°C]	further results
CC(C)COC(OCC(C)C)OCC(C)C		223	
O=C(Cc1ccccc1)OCCc1ccccc1	26.5		
COC(C)(C)CCOC(C)=O			ready biodegradability: readily biodegradable
c1ccc(-c2ccccc2-c2ccccc2)cc1	56.2	332	log10 vapour pressure (mmHg): -3.6; log10 BCF: 3.48; log10 biotransformation half-life (days): 0.86
CCCCCCCCCCCCCCC=O	24.5		
CC(C)(C)Br	-16.2	73.3	log10 vapour pressure (mmHg): 2.13
C=CCNC(N)=O	85		
CCCCCCSCCCCCC		230	
CCCCCCC1CCCC(C)C1 (stereo not given)			log10 biotransformation half-life (days): 0.97
CCCC(=O)CC(C)C		155	
CC1=CC(=O)O[C@@]2(C1)C[C@H]1CC[C@@H]2CN1C	54.5		
CCCCOC(=O)CCCCC(=O)OCCCC	-32.4		ready biodegradability: readily biodegradable
O=[N+]([O-])c1cccc(Cl)c1	46	236	log10 Henry constant (atm·m³/mol): -4.87; log10 vapour pressure (mmHg): -1.01; ready biodegradability: not readily biodegradable; log10 BCF: 1.89
NCCc1c[nH]c2ccc(O)cc12	168		
CCC(C)(Cl)CCl (stereo not given)		134	
Cc1cc(C(C)(C)C)cc(C)c1O	82.4	248	
CCC(CC)=NO		168	
O=C(Cl)c1ccc2ccccc2c1	51	305	
CC1(C)C(C(=O)OC(C#N)c2cccc(Oc3ccccc3)c2)C1(C)C (stereo not given)	47		log10 vapour pressure (mmHg): -5.26
Nc1ccc(C(=O)NCC(=O)O)cc1	198		
Oc1ccc(Nc2ccc3ccccc3c2)cc1	140		
CCC(C)(O)CC	-23.6	122	log10 vapour pressure (mmHg): 0.745
O=C1CCc2ccccc21	42	243	
FC(F)(F)c1nc(C(F)(F)F)nc(C(F)(F)F)n1	-24.8	95.5	

SMILES	melting point [°C]	boiling point [°C]	further results
CC1=CCC2CC1C2(C)C (stereo not given)			log10 Henry constant (atm·m³/mol): -0.873; log10 vapour pressure (mmHg): 0.677; ready biodegradability: readily biodegradable
Fc1ccccc1C1=NCC(=S)N(CC(F)(F)F)c2ccc(Cl)cc21	138		
ClC=C(Cl)Cl	-84.7	87.2	log10 Henry constant (atm·m³/mol): -2.01; log10 Koa: 2.99; log10 Koc (L/kg): 2; log10 vapour pressure (mmHg): 1.84; ready biodegradability: not readily biodegradable; log10 BCF: 1.2; log10 biotransformation half-life (days): -0.41
CC(C)C(=O)c1ccccc1	-1.3	220	
Cc1cc(Cl)cc([N+](=O)[O-])c1	61		
c1ccc(-c2cccc(-c3ccccc3)c2)cc1	87	363	log10 vapour pressure (mmHg): -4.76
Cc1cc(=O)oc2cc(O)ccc12	196		
CCCCCCC(C)Nc1ccc(Nc2ccccc2)cc1 (stereo not given)			ready biodegradability: not readily biodegradable
CCCC(C(N)=O)n1nc2ccccc2n1 (stereo not given)	126		
OCC(F)(F)C(F)(F)C(F)(F)C(F)(F)C(F)(F)C(F)F			ready biodegradability: not readily biodegradable
CCCCCCCCCI			log10 vapour pressure (mmHg): -1.56
COc1ccc(CC#N)cc1		286	
CCC(=O)OCC(C)C	-71.4	137	log10 vapour pressure (mmHg): 0.811
O=C(Cl)c1ccc(Cl)cc1	16	222	
CCCCC(CC)COC(=O)COc1cc(Cl)c(Cl)cc1Cl (stereo not given)			log10 vapour pressure (mmHg): -5.92
CC1=C(/C=C/C(C)=C/C=C/C(C)=C/C=O)C(C)(C)CC=C1	77.5		
Cc1cc(N)ccc1Br	81	240	log10 Koc (L/kg): 2.26
COc1cc(O)c2c(=O)c(-c3ccc(O)cc3)coc2c1	240		
B1Oc2ccccc2O1	12		
O=C1c2ccccc2C(=O)c2ccccc21	286	377	log10 Koc (L/kg): 3.57; log10 vapour pressure (mmHg): -6.94; ready biodegradability: readily biodegradable
Clc1ccc(-c2c(Cl)c(Cl)c(Cl)c(Cl)c2Cl)c(Cl)c1Cl			log10 Henry constant (atm·m³/mol): -4.96; log10 biotransformation half-life (days): 2.54
Fc1nc(F)c(Cl)c(F)n1		114	
